Here are results for 26 compounds from patent US11535611B2, “Pyrazolo[3,4-B]pyridines and imidazo[1,5-B]pyridazines as PDE1 inhibitors” (H. Lundbeck A/S, priority 2017, dated 2022).

What all share (format): biochemical
In one test the target is PDE1A (Homo sapiens (Human), UniProt P54750). In words: PDE1 inhibition assay, PDE1A. The settings on record: for pIC50: 15 nM tritium labelled cAMP, 1 hr at room temperature, SPA beads; for inhibition at 10 µM: @ 10 μM compound. On the procedure:
(§1) PDE1A, PDE1B and PDE1C assays were performed as follows: the assays were performed in 60 μL samples containing a fixed amount of the PDE1 enzyme (sufficient to convert 20-25% of the cyclic nucleotide substrate), a buffer (50 mM HEPES (4-(2-hydroxyethyl)-1-piperazineethanesulfonic acid) pH 7.6; 10 mM MgCl2; 0.02% Tween20), 0.1 mg/ml BSA (bovine serum albumin), 15 nM tritium labelled cAMP and varying amounts of inhibitors. Reactions were initiated by addition of the cyclic nucleotide substrate, and reactions were allowed to proceed for 1 hr at room temperature before being terminated through mixing with 20 μL (0.2 mg) yttrium silicate SPA beads (PerkinElmer). The beads were allowed to settle for 1 hour in the dark before the plates were counted in a Wallac 1450 Microbeta counter. The measured signals were converted to activity relative to an uninhibited control (100%) and IC50 values were calculated using XIFit (model 205, IDBS).

For the next test, the target named is PDE1B (Homo sapiens (Human), UniProt Q01064). In words: PDE1 inhibition assay, PDE1B. The settings on record: 15 nM tritium labelled cAMP, 1 hr at room temperature, SPA beads; read-out: PDE1 B, IC50. How it is done:
as §1

The target of a further test is PDE1C (Homo sapiens (Human), UniProt Q14123). In words: PDE1 inhibition assay, PDE1C. The settings on record: for inhibition at 10 µM: @ 10 μM compound, read-out: PDE1 C, % inhibition @ 10 μM; for pIC50: 15 nM tritium labelled cAMP, 1 hr at room temperature, SPA beads, read-out: PDE1 C, IC50; for inhibition at 1 µM: @ 1 μM compound, read-out: PDE1 C, % inhibition @ 1 μM. How it is done: as §1
PDE1C, sequence (Q14123 whole entry): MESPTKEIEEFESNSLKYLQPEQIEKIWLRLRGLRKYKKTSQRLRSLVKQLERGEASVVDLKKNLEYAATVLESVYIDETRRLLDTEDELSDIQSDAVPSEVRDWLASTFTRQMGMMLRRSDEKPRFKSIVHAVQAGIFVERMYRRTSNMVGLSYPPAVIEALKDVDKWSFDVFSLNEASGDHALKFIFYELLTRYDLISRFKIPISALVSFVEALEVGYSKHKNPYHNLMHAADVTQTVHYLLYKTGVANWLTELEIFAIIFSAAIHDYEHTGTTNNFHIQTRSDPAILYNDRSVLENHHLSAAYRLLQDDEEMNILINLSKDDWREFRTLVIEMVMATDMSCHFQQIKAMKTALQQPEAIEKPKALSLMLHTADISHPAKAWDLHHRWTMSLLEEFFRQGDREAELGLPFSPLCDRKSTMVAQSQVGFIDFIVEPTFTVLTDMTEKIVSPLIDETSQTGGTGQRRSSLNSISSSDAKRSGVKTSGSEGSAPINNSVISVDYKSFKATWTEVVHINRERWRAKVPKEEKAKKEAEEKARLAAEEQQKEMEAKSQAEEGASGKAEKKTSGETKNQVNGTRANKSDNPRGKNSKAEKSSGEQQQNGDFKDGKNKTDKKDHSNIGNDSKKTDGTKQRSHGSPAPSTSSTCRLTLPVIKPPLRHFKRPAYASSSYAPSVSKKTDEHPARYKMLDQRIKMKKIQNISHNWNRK

pIC50: −log10 of the molar value.

PDE1A, sequence (P54750 whole entry): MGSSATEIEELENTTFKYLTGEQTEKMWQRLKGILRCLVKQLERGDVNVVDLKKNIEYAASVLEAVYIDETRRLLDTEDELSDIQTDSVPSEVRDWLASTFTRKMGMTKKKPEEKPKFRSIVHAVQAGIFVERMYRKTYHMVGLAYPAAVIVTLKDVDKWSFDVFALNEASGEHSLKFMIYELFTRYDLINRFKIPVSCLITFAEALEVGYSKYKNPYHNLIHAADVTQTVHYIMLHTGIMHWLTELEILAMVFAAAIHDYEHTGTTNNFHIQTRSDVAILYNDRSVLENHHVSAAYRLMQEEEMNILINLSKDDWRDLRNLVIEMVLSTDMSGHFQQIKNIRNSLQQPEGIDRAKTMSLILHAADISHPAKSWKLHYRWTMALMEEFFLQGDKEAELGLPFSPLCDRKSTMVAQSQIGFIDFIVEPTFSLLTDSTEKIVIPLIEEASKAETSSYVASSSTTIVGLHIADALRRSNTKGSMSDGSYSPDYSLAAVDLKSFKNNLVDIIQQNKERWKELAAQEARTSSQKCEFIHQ
PDE1B, sequence (Q01064 whole entry): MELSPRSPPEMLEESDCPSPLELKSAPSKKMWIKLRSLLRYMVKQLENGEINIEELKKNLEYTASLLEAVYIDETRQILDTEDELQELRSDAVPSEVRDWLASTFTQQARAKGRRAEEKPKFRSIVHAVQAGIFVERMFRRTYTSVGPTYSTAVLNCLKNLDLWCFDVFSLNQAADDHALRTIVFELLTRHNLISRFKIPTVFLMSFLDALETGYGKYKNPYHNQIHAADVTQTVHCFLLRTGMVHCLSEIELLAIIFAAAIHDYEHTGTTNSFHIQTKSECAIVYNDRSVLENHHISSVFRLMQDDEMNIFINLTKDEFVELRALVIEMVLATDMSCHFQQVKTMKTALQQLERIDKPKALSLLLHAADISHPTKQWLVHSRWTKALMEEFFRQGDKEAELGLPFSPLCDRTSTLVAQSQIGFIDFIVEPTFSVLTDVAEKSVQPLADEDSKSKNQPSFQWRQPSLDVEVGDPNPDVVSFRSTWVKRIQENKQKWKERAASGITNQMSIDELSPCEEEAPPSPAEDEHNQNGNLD

In the case of `CCCn1ncc2nc(-c3cccnc3OCC)cc(N3CCCC3)c21` [Example 18, 5-(2-ethoxy-3-pyridyl)-1-propyl-7-pyrrolidin-1-yl-pyrazolo[4,3-b]pyridine], the negative-log IC50 (pIC50) (as a rule, the IC50 on a negative log10 scale, so that one unit is a factor of ten) at PDE1A was 6.20; on PDE1B, 6.47. At PDE1C, the inhibition – broadly, the change of the read-out against control, counted positive when it falls – at 10 µM was 64%.

For the compound `CCOc1ncccc1-c1ccn2c(C3(C)COC3)nc(C)c2n1` [Example 77, 2-(2-ethoxy-3-pyridyl)-8-methyl-6-(3-methyloxetan-3-yl)imidazo[1,5-a]pyrimidine], the values for the pIC50 against PDE1A, at PDE1B and at PDE1C were 6.35, 6.62 and 6.14, respectively.

For `CC(C)n1ncc2nc(-c3cccc(OC(F)F)c3)cc(N[C@@H]3CCOC3)c21` [Example 48, 5-[3-(difluoromethoxy)phenyl]-1-isopropyl-N-[(3R)-tetrahydrofuran-3-yl]pyrazolo[4,3-b]pyridin-7-amine], the pIC50 at PDE1A is 5.96; on PDE1B, 6.42; on PDE1C, 5.76.

`CC(C)n1ncc2nc(Cc3ccc(F)cc3)cc(N[C@@H]3CCOC3)c21` [Example 43, 5-[(4-fluorophenyl)methyl]-1-isopropyl-N-[(3R)-tetrahydrofuran-3-yl]pyrazolo[4,3-b]pyridin-7-amine]: the pIC50 against PDE1A was 5.54; on PDE1B, 5.91; on PDE1C, 6.21.

For `CCOc1ncccc1-c1cc(N[C@@H]2COC[C@H]2OC)c2c(cnn2C(C)C)n1` (relative stereo) [Example 11, 5-(2-ethoxy-3-pyridyl)-1-isopropyl-N-[trans-4-methoxytetrahydrofuran-3-yl]pyrazolo[4,3-b]pyridin-7-amine], the negative logarithm of the IC50 (pIC50) on PDE1A was 6.24; at PDE1B, 7.09; on PDE1C it was 5.83.

Regarding `CCOc1ncccc1-c1ccn2c([C@H](C)CC)nc(C)c2n1` (single isomer, unassigned) [Example 84, 2-(2-ethoxy-3-pyridyl)-8-methyl-6-[1-methylpropyl]imidazo[1,5-a]pyrimidine], the negative-log IC50 (pIC50) is 6.80 against PDE1A, 7.48 at PDE1B and 6.49 on PDE1C.

As for `CCOc1ncccc1-c1cc(N2CCCC2)c2c(cnn2C2COC2)n1` [Example 4, 5-(2-ethoxy-3-pyridyl)-1-(oxetan-3-yl)-7-pyrrolidin-1-yl-pyrazolo[4,3-b]pyridine], the pIC50 against PDE1A is 6.19; at PDE1B it was 7.02. The inhibition at 1 µM on PDE1C was found to be 56%.

On to `COc1ccc(Cc2cc(N[C@@H]3CCOC3)c3c(cnn3C(C)C)n2)cc1` [Example 57, 1-isopropyl-5-[(4-methoxyphenyl)methyl]-N-[(3R)-tetrahydrofuran-3-yl]pyrazolo[4,3-b]pyridin-7-amine], for which the pIC50 was 6.06 against PDE1A, 6.52 on PDE1B and 6.30 on PDE1C.

Turning to `CCOc1ncccc1-c1cc(N2CCCC2)c2c(cnn2C)n1` [Example 14, 5-(2-ethoxy-3-pyridyl)-1-methyl-7-pyrrolidin-1-yl-pyrazolo[4,3-b]pyridine], the pIC50 on PDE1A was 5.96; at PDE1B it was 6.19; on PDE1C, 5.46.

With `CCOc1ncccc1-c1cc(N2CCCC2)c2c(n1)c(C)nn2C` [Example 1, 5-(2-ethoxy-3-pyridyl)-1,3-dimethyl-7-pyrrolidin-1-yl-pyrazolo[4,3-b]pyridine], the inhibition at 1 µM on PDE1A (@ 1 μM compound) was 70%; at PDE1C it was 49%. Further, the negative logarithm of the IC50 (pIC50) at PDE1B is 6.77.

As for `Cc1cc2c(nc1-c1ccccc1)c(C)nn2C(C)C` [Example 60, 1-isopropyl-3,6-dimethyl-5-phenyl-pyrazolo[4,3-b]pyridine], the pIC50 at PDE1A was 6.65; on PDE1B, 6.91; on PDE1C, 6.70.

As for `COc1cncc(-c2cc(N[C@@H]3CCOC3)c3c(cnn3C(C)C)n2)c1` [Example 47, 1-isopropyl-5-(5-methoxy-3-pyridyl)-N-[(3R)-tetrahydrofuran-3-yl]pyrazolo[4,3-b]pyridin-7-amine], the results for the pIC50 on PDE1A, at PDE1B and at PDE1C were 5.82, 6.22 and 5.81, respectively.

As to `CCOc1ncccc1-c1ccc2c(n1)c(C)nn2C(C)C` [Example 59, 5-(2-ethoxy-3-pyridyl)-1-isopropyl-3-methyl-pyrazolo[4,3-b]pyridine], the pIC50 is 7.28 against PDE1A, 7.59 at PDE1B and 6.74 on PDE1C.

As to `COc1ccccc1-c1nc2c(C)nn(C(C)C)c2cc1C` [Example 62, 1-isopropyl-5-(2-methoxyphenyl)-3,6-dimethyl-pyrazolo[4,3-b]pyridine], the figures for the pIC50 against PDE1A, on PDE1B and on PDE1C were 6.16, 6.80 and 6.25, respectively.

Regarding `CC(C)n1ncc2nc(-c3ccccc3C#N)cc(N[C@@H]3CCOC3)c21` [Example 41, 2-[1-isopropyl-7-[[(3R)-tetrahydrofuran-3-yl]amino]pyrazolo[4,3-b]pyridin-5-yl]benzonitrile], the negative-log IC50 (pIC50) at PDE1A was 6.02; on PDE1B, 6.61; at PDE1C, 5.77.

With `COc1cnccc1-c1cc(N[C@@H]2CCOC2)c2c(cnn2C(C)C)n1` [Example 30, 1-isopropyl-5-(3-methoxy-4-pyridyl)-N-[(3R)-tetrahydrofuran-3-yl]pyrazolo[4,3-b]pyridin-7-amine], the results for the pIC50 at PDE1A, at PDE1B and on PDE1C were 5.81, 6.63 and 5.59, respectively.

As for `CCOc1ncccc1-c1cc(N)c2c(n1)c(C)nn2C(C)C` [Example 69, 5-(2-ethoxy-3-pyridyl)-1-isopropyl-3-methyl-pyrazolo[4,3-b]pyridin-7-amine], the pIC50 was 7.21 on PDE1A, 7.89 on PDE1B and 6.89 at PDE1C.

Turning to `CCOc1nccc(C)c1-c1cc(N[C@@H]2CCOC2)c2c(cnn2C(C)C)n1` [Example 34, 5-(2-ethoxy-4-methyl-3-pyridyl)-1-isopropyl-N-[(3R)-tetrahydrofuran-3-yl]pyrazolo[4,3-b]pyridin-7-amine], the pIC50 was 6.42 against PDE1A, 6.80 on PDE1B and 6.24 on PDE1C.

As to `Cc1cccnc1-c1cc(N[C@@H]2CCOC2)c2c(cnn2C(C)C)n1` [Example 39, 1-isopropyl-5-(3-methyl-2-pyridyl)-N-[(3R)-tetrahydrofuran-3-yl]pyrazolo[4,3-b]pyridin-7-amine], the inhibition at 10 µM against PDE1A came to 61%; at PDE1C, 59%. Moreover, the pIC50 on PDE1B was 5.72.

For `COCc1cccc(-c2cc(N[C@@H]3CCOC3)c3c(cnn3C(C)C)n2)c1` [Example 45, 1-isopropyl-5-[3-(methoxymethyl)phenyl]-N-[(3R)-tetrahydrofuran-3-yl]pyrazolo[4,3-b]pyridin-7-amine], the pIC50 is 5.61 against PDE1A and 6.47 on PDE1B. The inhibition at 10 µM at PDE1C is 72%.

As for `CC(C)n1ncc2nc(-c3cccc4c3OCCO4)cc(N[C@@H]3CCOC3)c21` [Example 42, 5-(2,3-dihydro-1,4-benzodioxin-5-yl)-1-isopropyl-N-[(3R)-tetrahydrofuran-3-yl]pyrazolo[4,3-b]pyridin-7-amine], the pIC50 at PDE1A was 5.80; at PDE1B, 6.26. The inhibition at 10 µM at PDE1C amounted to 68%.

As to `CCOc1ncccc1-c1cc(N2CCCC2)c2c(cnn2C(C)C)n1` [Example 17, 5-(2-ethoxy-3-pyridyl)-1-isopropyl-7-pyrrolidin-1-yl-pyrazolo[4,3-b]pyridine], the pIC50 is 6.45 against PDE1A and 7.08 on PDE1B. Besides, the inhibition at 1 µM at PDE1C turned out to be 50%.

As for `CC(C)n1ncc2nc(-c3cccnc3OC(C)(C)C)cc(N[C@@H]3CCOC3)c21` [Example 36, 5-(2-tert-butoxy-3-pyridyl)-1-isopropyl-N-[(3R)-tetrahydrofuran-3-yl]pyrazolo[4,3-b]pyridin-7-amine], the pIC50 on PDE1A is 6.59; at PDE1B it was 7.04; on PDE1C, 5.49.

`COc1cnc(C)c(-c2cc(N[C@@H]3CCOC3)c3c(cnn3C(C)C)n2)c1` [Example 51, 1-isopropyl-5-(5-methoxy-2-methyl-3-pyridyl)-N-[(3R)-tetrahydrofuran-3-yl]pyrazolo[4,3-b]pyridin-7-amine] yielded an inhibition at 10 µM against PDE1A of 20%. Also, the negative logarithm of the IC50 (pIC50) at PDE1B was 5.49; at PDE1C it was 5.41.

For the compound `CCOc1ncccc1-c1nc2c(C)nn(C(C)C)c2cc1C` [Example 63, 5-(2-ethoxy-3-pyridyl)-1-isopropyl-3,6-dimethyl-pyrazolo[4,3-b]pyridine], the negative logarithm of the IC50 (pIC50) on PDE1A was 7.07; on PDE1B, 7.80; on PDE1C, 6.76.

Consider `CCOc1ncccc1-c1cc(NC[C@@H]2CCCO2)c2c(cnn2C(C)C)n1` [Example 6, 5-(2-ethoxy-3-pyridyl)-1-isopropyl-N-[[(2S)-tetrahydrofuran-2-yl]methyl]pyrazolo[4,3-b]pyridin-7-amine], for which the pIC50 against PDE1A was 6.19; on PDE1B it was 6.95; on PDE1C, 5.86.
